# In ChEMBL document CHEMBL5543168, “Discovery of Urea Derivatives of Celastrol as Selective Peroxiredoxin 1 Inhibitors against Colorectal Cancer Cells” (J Med Chem, 2024):
# Calls of active or inactive are those of the source. No cut-off for these calls is given here.
# Legend:
# [1] = test system: HCT-116; assay: Inhibition of cell viability in human HCT-116 cells incubated for 72 hrs by Cell Titer Glo assay; assay type: functional, cell-based; settings: HCT-116, 72 h
# [2] = Antiproliferative activity against human LX2 cells; assay type: toxicity, cell-based, LX-2
# [3] = Selectivity ratio of IC50 for HEK293T cells to IC50 for human SW620 cells; assay type: functional
# [4] = Selectivity ratio of IC50 for human LX2 cells to IC50 for human SW620 cells; assay type: functional
# [5] = Selectivity ratio of IC50 for mouse […] cells to IC50 for human SW620 cells; assay type: functional
# [6] = Selectivity ratio of IC50 for HEK293T cells to IC50 for human HCT-116 cells; assay type: functional
# [7] = molecular target: T1, Peroxiredoxin-2 (Homo sapiens, UniProt P32119); assay: Inhibition of recombinant PRDX2 (unknown origin) using H2O2 as substrate preincubated for 0.5 hrs followed by substrate addition by TRX-TrxR-NADPH coupling assay
# T1 sequence (P32119 whole entry): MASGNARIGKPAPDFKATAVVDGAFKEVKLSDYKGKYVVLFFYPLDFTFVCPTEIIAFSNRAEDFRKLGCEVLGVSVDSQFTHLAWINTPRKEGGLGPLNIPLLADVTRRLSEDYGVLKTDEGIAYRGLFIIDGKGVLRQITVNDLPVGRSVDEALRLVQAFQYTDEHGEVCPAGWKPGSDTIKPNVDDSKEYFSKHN
# [8] = molecular target: T2, Thioredoxin-dependent peroxide reductase, mitochondrial (Homo sapiens, UniProt P30048); assay: Inhibition of recombinant PRDX3 (unknown origin) using H2O2 as substrate preincubated for 0.5 hrs followed by substrate addition by TRX-TrxR-NADPH coupling assay
# T2 sequence (P30048 whole entry): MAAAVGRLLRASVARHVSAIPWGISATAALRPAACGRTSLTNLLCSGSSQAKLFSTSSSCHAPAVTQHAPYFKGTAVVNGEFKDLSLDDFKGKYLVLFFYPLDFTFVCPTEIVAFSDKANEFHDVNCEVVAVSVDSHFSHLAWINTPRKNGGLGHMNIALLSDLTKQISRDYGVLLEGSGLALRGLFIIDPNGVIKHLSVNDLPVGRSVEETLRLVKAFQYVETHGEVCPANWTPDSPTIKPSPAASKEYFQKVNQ
# [9] = molecular target: T3, Peroxiredoxin-4 (Homo sapiens, UniProt Q13162); assay: Inhibition of recombinant PRDX4 (unknown origin) using H2O2 as substrate preincubated for 0.5 hrs followed by substrate addition by TRX-TrxR-NADPH coupling assay
# T3 sequence (Q13162 whole entry): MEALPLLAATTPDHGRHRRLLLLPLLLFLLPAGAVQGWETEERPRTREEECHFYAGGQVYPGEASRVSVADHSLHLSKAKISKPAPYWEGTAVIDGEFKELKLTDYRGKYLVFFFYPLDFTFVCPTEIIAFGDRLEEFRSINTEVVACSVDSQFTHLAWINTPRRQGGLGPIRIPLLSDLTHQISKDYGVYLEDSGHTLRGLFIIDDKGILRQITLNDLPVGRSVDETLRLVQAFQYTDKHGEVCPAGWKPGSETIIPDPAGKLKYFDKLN
# [10] = molecular target: T4, Peroxiredoxin-6 (Homo sapiens, UniProt P30041); assay: Inhibition of recombinant PRDX6 (unknown origin) using H2O2 as substrate preincubated for 0.5 hrs followed by substrate addition by TRX-TrxR-NADPH coupling assay
# T4 sequence (P30041 whole entry): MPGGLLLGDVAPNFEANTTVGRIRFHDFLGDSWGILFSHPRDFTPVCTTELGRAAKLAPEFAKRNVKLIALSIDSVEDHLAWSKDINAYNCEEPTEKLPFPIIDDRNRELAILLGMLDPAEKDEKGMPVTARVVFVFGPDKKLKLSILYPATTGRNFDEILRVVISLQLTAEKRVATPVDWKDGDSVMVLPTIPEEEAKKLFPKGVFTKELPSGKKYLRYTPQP
# [11] = test system: SW-620; assay: Induction of mitochondrial membrane potential depolarization in human SW620 cells assessed as decrease in JC-1-stained red cells incubated for 48 hrs by flow cytometry; assay type: functional, cell-based; settings: dose 0.5-2 µM
# [12] = test system: SW-620; assay: Induction of mitochondrial membrane potential depolarization in human SW620 cells assessed as increase in JC-1-stained green cells at 0.5 to 2 uM incubated for 48 hrs by flow cytometry; assay type: functional, cell-based; settings: dose 0.5-2 µM
# [13] = test system: SW-620; assay: Induction of mitochondrial membrane potential depolarization in human SW620 cells assessed as increase in green fluorescence incubated for 48 hrs by JC1-staining based CLSM analysis; assay type: functional, cell-based; settings: dose 0.5-2 µM
# [14] = test system: SW-620; assay: Induction of cell cycle arrest at G1 phase in human SW620 cells at 0.5 uM incubated for 24 hrs by PI staining based flow cytometry (reference value: 32.4 %); assay type: functional
# [15] = test system: SW-620; assay: Induction of cell cycle arrest at G2 phase in human SW620 cells at 0.5 uM incubated for 24 hrs by PI staining based flow cytometry (reference value: 6.77 %); assay type: functional
# [16] = test system: SW-620; assay: Induction of cell cycle arrest at G1 phase in human SW620 cells at 1 uM incubated for 24 hrs by PI staining based flow cytometry (reference value: 32.4 %); assay type: functional
# [17] = test system: SW-620; assay: Induction of cell cycle arrest at G2 phase in human SW620 cells at 1 uM incubated for 24 hrs by PI staining based flow cytometry (reference value: 6.77 %); assay type: functional
# [18] = test system: SW-620; assay: Induction of cell cycle arrest at G1 phase in human SW620 cells at 2 uM incubated for 24 hrs by PI staining based flow cytometry (reference value: 32.4 %); assay type: functional
# [19] = test system: SW-620; assay: Induction of apoptosis in human SW620 cells assessed as increase in Cyt C level incubated for 48 hrs by Western blot analysis; assay type: functional, cell-based; settings: dose 0.25-2 µM
# [20] = test system: SW-620; assay: Induction of apoptosis in human SW620 cells assessed as decrease in Bcl-xl level incubated for 48 hrs by Western blot analysis; assay type: functional, cell-based; settings: dose 0.25-2 µM
# [21] = test system: SW-620; assay: Induction of DNA damage in human SW620 cells assessed as increase in gamma-H2AX level incubated for 48 hrs by Western blot analysis; assay type: functional, cell-based; settings: dose 0.25-2 µM
# [22] = Cmax in mouse at 2 mg/kg, iv measured for 24 hrs by LC-MS/MS analysis; assay type: ADME, organism-based; settings: in vivo
# [23] = AUC (0 to t) in mouse at 2 mg/kg, iv measured for 24 hrs by LC-MS/MS analysis; assay type: ADME, organism-based; settings: in vivo
# [24] = Volume of distribution in mouse at 2 mg/kg, iv measured for 24 hrs by LC-MS/MS analysis; assay type: ADME, organism-based; settings: in vivo
# [25] = Clearance in mouse at 2 mg/kg, iv measured for 24 hrs by LC-MS/MS analysis; assay type: ADME, organism-based; settings: in vivo
# [26] = Acute toxicity in C57BL/[…] 6J mouse assessed as body weight loss at 20 mg/kg, ip measured for 2 weeks; assay type: organism-based; settings: in vivo, 336 h
# [27] = Acute toxicity in C57BL/[…] 6J mouse assessed as pathological change in heart at 20 mg/kg, ip measured for 2 weeks by H and E staining based analysis; assay type: organism-based; settings: in vivo, 336 h
# [28] = Acute toxicity in C57BL/[…] 6J mouse assessed as pathological change in kidney at 20 mg/kg, ip measured for 2 weeks by H and E staining based analysis; assay type: organism-based; settings: in vivo, 336 h
# [29] = test system: SW-620; assay: cells; settings: Homo sapiens, SW-620, 48 h, read-out: Activity
# Description: Induction of apoptosis in human SW620 cells assessed as viable cells at 2 uM incubated for 48 hrs by Annexin V-FITC/PI staining based flow cytometry (Rvb = 90.7 %)
compound,measurement,setting,value
COC(=O)C1(NC(=O)N[C@]2(C)CC[C@]3(C)CC[C@]4(C)C5=CC=C6C(=CC(=O)C(O)=C6C)[C@]5(C)CC[C@@]4(C)[C@@H]3C2)CCC1,IC50,[1],440 nM
same,IC50,[2],~1000 nM
same,Selectivity ratio,[3],2
same,Selectivity ratio,[4],2
same,Selectivity ratio,[5],2
same,Selectivity ratio,[6],2
same,IC50,[7],> 50 µM
same,IC50,[8],> 50 µM
same,IC50,[9],> 50 µM
same,IC50,[10],> 50 µM
same,Activity,[11],Dose-Dependent Effect
same,Activity,[12],Active
same,Activity,[13],Dose-Dependent Effect
same,Activity,[14],33.5%
same,Activity,[15],7.05%
same,Activity,[16],39.7%
same,Activity,[17],14.6%
same,Activity,[18],29.2%
same,Activity,[19],Dose-Dependent Effect
same,Activity,[20],Dose-Dependent Effect
same,Activity,[21],Dose-Dependent Effect
same,Cmax,[22],203 ng/mL
same,AUC(0-t) at 24 h,[23],364 ng·h/mL
same,Vd,[24],60.7 L/kg
same,clearance,[25],83.1 mL/min/kg
same,Activity,[26],Non-Toxic
same,Activity,[27],Non-Toxic
same,Activity,[28],Non-Toxic
same,viability at 2 µM,[29],41.5%
